# Laboratory results: patent US10597388B2, “Pyridazinone herbicides” (FMC CORPORATION, priority 2014, dated 2020)
# What was measured:
# Test in all cases: Test D controlled growth environment herbicide test, pre- and postemergence
# Assay type in all cases: in vivo
# [1] = tested on: speedwell (bird's-eye speedwell, Veronica persica)
# In short: (§1)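 Pre-emergence: seeds sown in silt loam soil were sprayed with compound in a non-phytotoxic solvent mix containing surfactant. Post-emergence: plants at 2 to 18 cm (1- to 4-leaf stage) in peat moss/vermiculite medium got the same formulation. Visual 0–100 rating versus controls after 14 to 21 d.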
# [2] = tested on: canarygrass (Phalaris minor)
# In short: as §1
# [3] = tested on: lambsquarters (Chenopodium album)
# In short: as §1
# [4] = tested on: barley, winter (winter barley, Hordeum vulgare)
# In short: as §1
# [5] = tested on: bromegrass, downy (downy bromegrass, Bromus tectorum)
# In short: as §1
# [6] = tested on: bluegrass (annual bluegrass, Poa annua)
# In short: as §1
# [7] = tested on: galium (catchweed bedstraw, Galium aparine)
# In short: as §1
# [8] = tested on: mustard, wild (wild mustard, Sinapis arvensis)
# In short: as §1
# [9] = tested on: chamomile (scentless chamomile, Matricaria inodora)
# In short: as §1
# [10] = tested on: barley, spring (spring barley, Hordeum vulgare)
# In short: as §1
# [11] = tested on: oat, wild (wild oat, Avena fatua)
# In short: as §1
# [12] = tested on: foxtail, green (green foxtail, Setaria viridis)
# In short: as §1
# kochia (Kochia scoparia) = tested on: kochia (Kochia scoparia)
# In short: as §1
# [13] = Postemergence, 31 g ai/ha, scale 0 to 100 (0 no effect, 100 complete control)
# [14] = Postemergence, 125 g ai/ha, visual rating on scale 0 (no effect) to 100 (complete control), 14 to 21 d
# [15] = Postemergence, 250 g ai/ha, scale 0 to 100 (0 no effect, 100 complete control)
# [16] = Preemergence, 62 g ai/ha, scale 0 to 100 (0 no effect, 100 complete control)
# [17] = Preemergence, 125 g ai/ha, scale 0 to 100 (0 no effect, 100 complete control)
# [18] = Preemergence, 250 g ai/ha, scale 0 to 100 (0 no effect, 100 complete control)
# [19] = postemergence, 62 g ai/ha, scale 0 to 100, 0 no effect, 100 complete control
compound,measurement,setting,value
Cc1ccc(-c2c(O)c(Br)nn(C)c2=O)c2ccccc12 [Compound 52],Speedwell plant response rating,[1]; [13],70
same,"Plant response rating, Speedwell",[1]; [14],100
same,"Plant response rating, Speedwell",[1]; [15],100
same,"Plant response rating (scale of 0 to 100), Speedwell","[1]; Preemergence, 31 g ai/ha",50
same,"Plant response rating, Speedwell",[1]; [16],100
same,"Plant response rating, Speedwell",[1]; [17],95
same,"Plant response rating, Speedwell",[1]; [18],100
same,"Plant response rating, Speedwell",[1]; [19],85
same,Canarygrass plant response rating,[2]; [13],0
same,"Plant response rating, Canarygrass",[2]; [14],0
same,"Plant response rating, Canarygrass",[2]; [15],0
same,"Plant response rating (scale of 0 to 100), Canarygrass","[2]; Preemergence, 31 g ai/ha",20
same,"Plant response rating, Canarygrass",[2]; [16],25
same,"Plant response rating, Canarygrass",[2]; [17],25
same,"Plant response rating, Canarygrass",[2]; [18],35
same,"Plant response rating, Canarygrass",[2]; [19],0
same,Lambsquarters plant response rating,[3]; [13],75
same,"Plant response rating, Lambsquarters",[3]; [14],75
same,"Plant response rating, Lambsquarters",[3]; [15],90
same,"Plant response rating (scale of 0 to 100), Lambsquarters","[3]; Preemergence, 31 g ai/ha",35
same,"Plant response rating, Lambsquarters",[3]; [16],90
same,"Plant response rating, Lambsquarters",[3]; [17],100
same,"Plant response rating, Lambsquarters",[3]; [18],100
same,"Plant response rating, Lambsquarters",[3]; [19],75
same,"Barley, Winter plant response rating",[4]; [13],0
same,"Plant response rating, Barley, Winter",[4]; [14],0
same,"Plant response rating, Barley, Winter",[4]; [15],0
same,"Plant response rating (scale of 0 to 100), Barley, Winter","[4]; Preemergence, 31 g ai/ha",0
same,"Plant response rating, Barley, Winter",[4]; [16],0
same,"Plant response rating, Barley, Winter",[4]; [17],0
same,"Plant response rating, Barley, Winter",[4]; [18],0
same,"Plant response rating, Barley, Winter",[4]; [19],0
same,"Bromegrass, Downy plant response rating",[5]; [13],0
same,"Plant response rating, Bromegrass, Downy",[5]; [14],0
same,"Plant response rating, Bromegrass, Downy",[5]; [15],10
same,"Plant response rating (scale of 0 to 100), Bromegrass, Downy","[5]; Preemergence, 31 g ai/ha",0
same,"Plant response rating, Bromegrass, Downy",[5]; [16],0
same,"Plant response rating, Bromegrass, Downy",[5]; [17],15
same,"Plant response rating, Bromegrass, Downy",[5]; [18],20
same,"Plant response rating, Bromegrass, Downy",[5]; [19],0
same,Bluegrass plant response rating,[6]; [13],5
same,"Plant response rating, Bluegrass",[6]; [14],30
same,"Plant response rating, Bluegrass",[6]; [15],30
same,"Plant response rating (scale of 0 to 100), Bluegrass","[6]; Preemergence, 31 g ai/ha",0
same,"Plant response rating, Bluegrass",[6]; [16],10
same,"Plant response rating, Bluegrass",[6]; [17],25
same,"Plant response rating, Bluegrass",[6]; [18],35
same,"Plant response rating, Bluegrass",[6]; [19],5
same,Galium plant response rating,[7]; [13],90
same,"Plant response rating, Galium",[7]; [14],98
same,"Plant response rating, Galium",[7]; [15],100
same,"Plant response rating (scale of 0 to 100), Galium","[7]; Preemergence, 31 g ai/ha",70
same,"Plant response rating, Galium",[7]; [16],100
same,"Plant response rating, Galium",[7]; [17],90
same,"Plant response rating, Galium",[7]; [18],95
same,"Plant response rating, Galium",[7]; [19],95
same,"Mustard, Wild plant response rating",[8]; [13],20
same,"Plant response rating, Mustard, Wild",[8]; [14],90
same,"Plant response rating, Mustard, Wild",[8]; [15],100
same,"Plant response rating (scale of 0 to 100), Mustard, Wild","[8]; Preemergence, 31 g ai/ha",85
same,"Plant response rating, Mustard, Wild",[8]; [16],100
same,"Plant response rating, Mustard, Wild",[8]; [17],90
same,"Plant response rating, Mustard, Wild",[8]; [18],98
same,"Plant response rating, Mustard, Wild",[8]; [19],75
same,Chamomile plant response rating,[9]; [13],85
same,"Plant response rating, Chamomile",[9]; [14],100
same,"Plant response rating, Chamomile",[9]; [15],100
same,"Plant response rating (scale of 0 to 100), Chamomile","[9]; Preemergence, 31 g ai/ha",60
same,"Plant response rating, Chamomile",[9]; [16],100
same,"Plant response rating, Chamomile",[9]; [17],100
same,"Plant response rating, Chamomile",[9]; [18],100
same,"Plant response rating, Chamomile",[9]; [19],100
same,"Barley, Spring plant response rating",[10]; [13],0
same,"Plant response rating, Barley, Spring",[10]; [14],5
same,"Plant response rating, Barley, Spring",[10]; [15],0
same,"Plant response rating (scale of 0 to 100), Barley, Spring","[10]; Preemergence, 31 g ai/ha",0
same,"Plant response rating, Barley, Spring",[10]; [16],0
same,"Plant response rating, Barley, Spring",[10]; [17],0
same,"Plant response rating, Barley, Spring",[10]; [18],0
same,"Plant response rating, Barley, Spring",[10]; [19],0
same,"Oat, Wild plant response rating",[11]; [13],5
same,"Plant response rating, Oat, Wild",[11]; [14],5
same,"Plant response rating, Oat, Wild",[11]; [15],15
same,"Plant response rating (scale of 0 to 100), Oat, Wild","[11]; Preemergence, 31 g ai/ha",25
same,"Plant response rating, Oat, Wild",[11]; [16],25
same,"Plant response rating, Oat, Wild",[11]; [17],25
same,"Plant response rating, Oat, Wild",[11]; [18],30
same,"Plant response rating, Oat, Wild",[11]; [19],5
same,"Foxtail, Green plant response rating",[12]; [13],5
same,"Plant response rating, Foxtail, Green",[12]; [14],10
same,"Plant response rating, Foxtail, Green",[12]; [15],40
same,"Plant response rating (scale of 0 to 100), Foxtail, Green","[12]; Preemergence, 31 g ai/ha",0
same,"Plant response rating, Foxtail, Green",[12]; [16],0
same,"Plant response rating, Foxtail, Green",[12]; [17],15
same,"Plant response rating, Foxtail, Green",[12]; [18],35
same,"Plant response rating, Foxtail, Green",[12]; [19],5
same,Kochia plant response rating,kochia (Kochia scoparia); [13],0
same,"Plant response rating, Kochia",kochia (Kochia scoparia); [14],55
same,"Plant response rating, Kochia",kochia (Kochia scoparia); [15],65
same,"Plant response rating (scale of 0 to 100), Kochia","kochia (Kochia scoparia); Preemergence, 31 g ai/ha",15
same,"Plant response rating, Kochia",kochia (Kochia scoparia); [16],35
same,"Plant response rating, Kochia",kochia (Kochia scoparia); [17],40
same,"Plant response rating, Kochia",kochia (Kochia scoparia); [18],90
same,"Plant response rating, Kochia",kochia (Kochia scoparia); [19],20
